US8227511B2, “Substituted chromanol derivatives and their use” (Bayer Intellectual Property GmbH, priority 2006, dated 2012)

target: T1, CETP (Homo sapiens, UniProt P11597); assay: CETP fluorescence test with enriched CETP; format: biochemical; conditions: enriched CETP fraction from human plasma; transfer of fluorescent cholesterol ester between liposomes; 37° C. for 4 h
T1 construct: CETP is obtained in partially purified form from human plasma by differential centrifugation and column chromatography and used for the test; from tissue; host or cells: human plasma
T1 sequence (P11597 18-493): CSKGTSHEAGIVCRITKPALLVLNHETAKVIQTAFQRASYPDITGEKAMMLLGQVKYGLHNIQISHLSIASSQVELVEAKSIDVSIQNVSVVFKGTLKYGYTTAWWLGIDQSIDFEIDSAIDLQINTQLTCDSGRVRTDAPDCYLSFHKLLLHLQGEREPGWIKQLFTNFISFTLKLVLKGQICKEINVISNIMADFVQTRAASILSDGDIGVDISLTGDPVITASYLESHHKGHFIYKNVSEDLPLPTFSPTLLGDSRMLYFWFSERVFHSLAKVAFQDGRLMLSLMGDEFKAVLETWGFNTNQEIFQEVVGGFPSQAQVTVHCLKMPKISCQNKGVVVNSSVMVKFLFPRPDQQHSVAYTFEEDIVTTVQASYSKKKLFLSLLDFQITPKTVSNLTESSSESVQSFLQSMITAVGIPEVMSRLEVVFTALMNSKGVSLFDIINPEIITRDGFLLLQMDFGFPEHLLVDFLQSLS
Experimental: CETP is obtained in partially purified form from human plasma by differential centrifugation and column chromatography and used for the test. To this end, human plasma is adjusted to a density of 1.21 g per ml using NaBr and centrifuged at 4° C. at 50 000 rpm for 18 h. The bottom fraction (d>1.21 g/ml) is applied to a Phenyl-Sepharose 26/10 HP fast flow-column (Pharmacia), washed with PBS buffer and then eluted with distilled water. 10 parts of PBS buffer and 1% (w/v) BSA are added to the eluate. The CETP-active fractions are pooled.
Measurement of the CETP-catalyzed transfer of a fluorescent cholesterol ester between liposomes [modified according to the procedure of Bisgaier et al., J. Lipid Res. 34, 1625 (1993)]:
For the production of the donor liposomes, 1 mg of cholesteryl 4,4-difluoro-5,7-dimethyl-4-bora-3a,4a-diaza-s-indacene-3-dodecanoate (cholesteryl BODIPY® FL C12, Molecular Probes) is dissolved in 2 ml of chloroform with 5.35 mg of triolein and 6.67 mg of phosphatidylcholine. The solvent is removed at medium temperature in a SpeedVac and the residue is dried under high vacuum for 1 h. The residue is then dissolved in 600 μl of dioxane with gentle warming in an ultrasonic bath and this solution is added very slowly with ultrasonication to 63 ml of 50 mM Tris/HCl, 150 mM NaCl, 2 mM EDTA buffer pH 7.3 at room temperature. The suspension is then ultrasonicated under an N2 atmosphere for 30 minutes in the Branson ultrasonic bath at about 50 watts, the temperature being kept at about 20° C.
The acceptor liposomes are obtained analogously from 86 mg of cholesteryl oleate, 20 mg of triolein and 100 mg of phosphatidylcholine dissolved in 1.2 ml of dioxane and 114 ml of the above buffer by ultrasonication at 50 watts (20° C.) for 30 minutes.
For testing, a test mix consisting of 1 part of above buffer, 1 part of donor liposomes and 2 parts of acceptor liposomes is used.
50 μl of test mix are treated with 48 μl of enriched CETP fraction (1-3 μg), obtained from human plasma by means of hydrophobic chromatography, and 2 μl of a solution of the substance to be investigated in DMSO and incubated at 37° C. for 4 h.
The change in the fluorescence at 485/535 nm is a measure of the CE transfer; the inhibition of the transfer in comparison to the control batch without substance is determined.

SMILES	IC50 [nM]
CC(C)c1cc2c(c(-c3ccccc3)c1C(=O)c1ccc(OC(F)(F)F)cc1)[C@@H](O)CC(C)(C)O2 [Example 18, [(4S)-4-Hydroxy-7-isopropyl-2,2-dimethyl-5-phenyl-3,4-dihydro-2H-chromen-6-yl][4-(trifluoromethoxy)phenyl]methanone]	792
CC(C)c1cc2c(c(C3=CCCCC3)c1[C@@H](O)c1ccc(C(F)(F)F)cc1)[C@@H](O)CC(C)(C)O2 [Example 20, (4S)-5-Cyclohex-1-en-1-yl-6-{(S)-hydroxy[4-(trifluoromethyl)phenyl]methyl}-7-isopropyl-2,2-di-methylchroman-4-ol]	49
CC(C)c1cc2c(c(-c3ccc(F)cc3)c1[C@H](F)c1ccc(C(F)(F)F)cc1)[C@@H](O)CC(C)(C)O2 [Example 8, (4S)-5-(4-fluorophenyl)-6-{(R)-fluoro[4-(trifluoromethyl)phenyl]methyl}-7-isopropyl-2,2-dimethylchroman-4-ol]	373
CC(C)c1cc2c(c(-c3ccc(F)cc3)c1C(=O)c1ccc(OC(F)(F)F)cc1)[C@@H](O)CC(C)(C)O2 [Example 10, [(4S)-5-(4-Fluorophenyl)-4-hydroxy-7-isopropyl-2,2-dimethyl-3,4-dihydro-2H-chromen-6-yl][4-(trifluoromethoxy)phenyl]methanone]	93
CC(C)c1cc2c(c(-c3ccc(F)cc3)c1[C@@H](O)c1ccc(C(C)(C)C)cc1)[C@@H](O)CC(C)(C)O2 [Example 15, (4S)-6-[(S)-(4-tert-Butylphenyl)(hydroxy)methyl]-5-(4-fluorophenyl)-7-isopropyl-2,2-dimethyl-chroman-4-ol]	38
CC(C)c1cc2c(c(C3CCCC3)c1Cc1ccc(C(F)(F)F)cc1)[C@@H](O)CC(C)(C)O2 [Example 26, (4S)-5-Cyclopentyl-7-isopropyl-2,2-dimethyl-6-[4-(trifluoromethyl)benzyl]chroman-4-ol]	48
CC(C)c1cc2c(c(-c3ccc(F)cc3)c1C(F)c1ccc(OC(F)(F)F)cc1)[C@@H](O)CC1(CCC1)O2 (mixture of isomers) [Example 40, (4S)-5-(4-Fluorophenyl)-6-{fluoro[4-(trifluoromethoxy)phenyl]methyl}-7-isopropyl-3,4-dihydrospiro[chromen-2,1′-cyclobutan]-4-ol]	50

Further compounds by falling IC50, results first:

IC50 [nM]	SMILES
340	CC1(C)C[C@H](O)c2c(cc(C3CCCC3)c([C@@H](O)c3ccc(C(F)(F)F)cc3)c2-c2ccc(F)cc2)O1 [Example 1, (4S)-7-Cyclopentyl-5-(4-fluorophenyl)-6-{(S)-hydroxy[4-(trifluoromethyl)phenyl]methyl}-2,2-dimethylchroman-4-ol]
263	CC(C)c1cc2c(c(-c3ccc(F)cc3)c1[C@H](O)c1ccc(C(F)(F)F)cc1)[C@@H](O)CC1(CC1)O2 [Example 56]
176	CC(C)c1cc2c(c(-c3ccc(F)cc3)c1C(=O)c1ccc(C(C)(C)C)cc1)[C@@H](O)CC(C)(C)O2 [Example 14, (4-tert-Butylphenyl)[(4S)-5-(4-fluorophenyl)-4-hydroxy-7-isopropyl-2,2-dimethyl-3,4-dihydro-2H-chromen-6-yl]methanone]
70	CC(C)c1cc2c(c(-c3ccc(F)cc3)c1Cc1ccc(C(C)(C)C)cc1)[C@@H](O)CC(C)(C)O2 [Example 17, (4S)-6-(4-tert-Butylbenzyl)-5-(4-fluorophenyl)-7-isopropyl-2,2-dimethylchroman-4-ol]
39	O[C@H]1CC2(CCC2)Oc2cc(C3CCCC3)c(C(F)c3ccc(OC(F)(F)F)cc3)c(-c3ccc(F)cc3)c21 (stereo partly drawn) [Example 54]
